Test results published in patent US20150343016A1, “CHEMICAL ENTITIES AND THERAPEUTIC USES THEREOF” (The Regents of the University of Colorado, a body corporate, priority 2010, published 2015).

Experiments:
[1] = system: wild type Drosophila larvae; assay: Drosophila larval survival to adulthood (eclosion), drug with and without IR, wild type; format: in vivo; settings: for effect on the killing effect of radiation (+IR versus +both): wild type
Description: To validate the identification of Bouvardin from the primary screen, the effect of this molecule on Drosophila larvae alone or in combination with radiation were assessed (FIG. 12). The screen was performed using irradiated mutant larvae. Hits from the screen were defined as those that reduced the survival of IRRADIATED larvae compared to the population of drugs being tested (approximately 80 molecules at a time) or compared to DMSO controls in the re-test. A hit could therefore act by enhancing the effect of radiation, or by simply killing larvae as a single agent, or both. To distinguish among these possibilities, hits from the screen were re-tested against larvae with and without irradiation.
In FIG. 12 survival after each treatment is expressed as the fraction of animals that emerged (“eclosed”) as viable adults. The averages have been normalized to the average fraction eclosed in no IR/drug control for the respective genotype. Error bars extend beyond fractional survival of 1.0 simply because of normalization. (A-C) Fraction eclosed for WT and grp and p53 mutants at 16 uM of Bouvardin, with and without IR. The data are averages of 3-8 biological replicates per sample. Dotted line on each graph denotes expected ‘fraction eclosed’ if drug and IR act additively. IR doses were 4000R for WT and grp and 3000R for p53 because of the higher radiation sensitivity of the latter. (D) Fraction eclosed for Minute mutants and yw controls after exposure to 0 (−IR) and 2000R (+IR) of X-rays. N ranged from 86-207 per genotype per treatment, in 3 biological replicates per sample. *=p<0.01; **=<0.001. 100R=1Gy. Error bar=1 standard deviation.
The activity of Bouvardin in Drosophila alone or in combination with ionizing radiation (IR) was assessed. Drug concentrations of 10-20 μM were used to approximate the conditions of the original screen. Third instar larvae were irradiated and cultured on medium containing drug. The survival of larvae was quantified 10 days later by measuring the rate of eclosion into adulthood. […] For example, IR alone reduces the eclosion of p53 mutants to 0.63±0.05 and 10 μM of drug reduces it to 0.82±0.15. The combination of Bouvardin and IR reduces eclosion to 0.49, nearly the exact number expected (0.63±0.05×0.82±0.15=0.51±0.10) if the two treatments produced an additive effect. The expected eclosion for additive effect of drug and radiation are denoted with a white dotted line in each graph.
Wild type flies were of the Sevelin stock. Mutants have been described before. p535A-1-4 results from targeted deletion of the gene, and is maintained and used as homogygotes. grpl (Chk1 mutants) results from a p-element insertion and is a genetic null. Homozygotes of the latter were identified by the lack of GFP marker on the balancer chromosome. Minute mutants were of the genotypes y[1]w[*]; P[w[+mC]=lacW]RpS131/CyO and P[lacW]RpL36G0471 w67c23/FM7a. Because Minute mutants were in yw or w background, y1w1 (Bloomington stock #1495) was used as ‘wild type’ control in these experiments.
Feeding stage 3rd instar larvae were irradiated as previously described (2). Briefly, 120 hr old larvae were rinsed to remove food and passed through sizing sieves to obtain animals of uniform size. Larvae were placed in a Petri dish and irradiated using a TORREX X-ray generator, set at 115 kV and 5 mA (producing 2.4 Rads/sec or 1.44 Gy/min) Irradiated larvae were then cultured on cornmeal-agar media (2) containing drug or DMSO carrier. […]

H157 cells = assay: Clonogenic assay, Bouvardin with IR, H157; format: cell-based, human
Description: To assess the effect of Bouvardin, another measure of cell survival, namely, clonogenic assays, was employed. […] For example, IC50 for IR at 0 and 10 nM of Bouvardin, extrapolated from the graph in FIG. 17A, are approximately 1.5 Gy and 1.0 Gy (dark and light dotted lines respectively).
In FIG. 17 (A) Clonogenic assays were used to confirm the effects of Bouvardin in combination with radiation in H157 cells. Cells were plated in 6 well plates at 1,000 cells per well. 24 hours later, various doses of (1 nM, 5 nM and 10 nM) of Bouvardin were added with media alone as a control. 24 hours after the addition of Bouvardin, the cells were irradiated at 0, 2, 4 and 6 Gy. Colonies were allowed to form for 2 weeks and then counted. The results are shown as a percentage of control (no drug, no IR). Error bar=±1SEM. (B) The effect of Bouvardin (Bvd) and radiation on H157 xenografts in athymic mice. Bouvardin treatment began when tumors had reached approximately 200 mm3. […]
The survival of cells treated with Bouvardin and IR was measured by performing standard clonogenic assays. […] The colonies were then stained with crystal violet (1% in methanol), rinsed 3× with water, and colonies with greater than 50 cells were counted using a dissection microscope. Fraction survival was calculated as a percentage of the control (no drug, no IR).

SMILES: COc1ccc(C[C@H]2C(=O)N[C@H](C)C(=O)N(C)[C@@H]3C(=O)N(C)[C@@H](Cc4ccc(O)c(c4)Oc4ccc(cc4)[C@H]3O)C(=O)N[C@@H](C)C(=O)N[C@H](C)C(=O)N2C)cc1 (stereo in doubt) [Bouvardin, bouvardin]
- effect on the killing effect of radiation (+IR versus +both) [1]: not wild type
- effect of drug alone on survival to adulthood ([1]; wild type flies, bouvardin up to 100 μM, no IR): very little effect
- effect on the killing effect of radiation (+IR versus +both) ([1]; listed as bouvardin): did not significantly reduce survival to adulthood
- effect on radiation-induced reduction of clonogenicity (H157 cells): increased the effect of radiation in reducing the clonogenicity
